Values after ≈ are worked out from the molar mass of the structure shown.
Columns and labels:
Assay in all cases: ≥ marks a high value that may be exact or a test limit, other limits are often not marked, values filed in µg/mL are converted to µM
[1] = tested on: Cronobacter sakazakii DPC 6440
[2] = tested on: Cronobacter sakazakii ATCC BAA-894
[3] = tested on: Salmonella enterica subsp. enterica serovar Typhimurium LT2
[4] = tested on: Cronobacter sakazakii DSM 4485
[5] = tested on: Staphylococcus aureus RN4220
[6] = tested on: Pseudomonas fluorescens NCIMB 9046
[7] = tested on: Staphylococcus aureus RF122
[8] = tested on: Staphylococcus aureus NCTC 8325-4
[9] = tested on: Escherichia coli NCIMB 11843
[10] = tested on: Cronobacter muytjensii ATCC 51329
[11] = tested on: Klebsiella pneumoniae NCIMB 13218
[12] = tested on: Staphylococcus aureus Newman
[13] = tested on: Staphylococcus aureus SA113
[14] = tested on: Pseudomonas aeruginosa ATCC 27853
[15] = tested on: Escherichia coli JW0013
[16] = tested on: Pseudomonas aeruginosa Ps4
[17] = tested on: Bacillus subtilis ATCC 6051

## CC(C)C[C@H](NC(=O)[C@H](CC(N)=O)NC(=O)[C@H](CCC(=O)O)NC(=O)[C@H](CC(N)=O)NC(=O)[C@H](CC(C)C)NC(=O)[C@@H](N)C(C)C)C(=O)N[C@@H](CCCN=C(N)N)C(=O)N[C@@H](CCCN=C(N)N)C(=O)O [VLNENLRR]
[1]
  MIC: ≥ 1250 µM
[2]
  MIC: ≥ 1250 µM
[3]
  MIC: ≥ 2500 µM
[4]
  MIC: ≥ 1250 µM
[5]
  MIC: ≥ 1250 µM
[6]
  MIC: ≥ 1250 µM
[7]
  MIC: ≥ 1250 µM
[8]
  MIC: ≥ 625 µM
[9]
  MIC: ≥ 2500 µM
[10]
  MIC: ≥ 625 µM
[11]
  MIC: ≥ 1250 µM
[12]
  MIC: ≥ 1250 µM
[13]
  MIC: ≥ 1250 µM
[14]
  MIC: 32 µM (≈ 32.4 µg/mL)

## CC(C)C[C@H](NC(=O)CNC(=O)[C@H](CCC(N)=O)NC(=O)[C@H](Cc1cnc[nH]1)NC(=O)[C@@H](N)CCCCN)C(=O)N1CCC[C@H]1C(=O)N[C@@H](CCC(N)=O)C(=O)N[C@@H](CCC(=O)O)C(=O)O [KHQGLPQE]
[1]
  MIC: ≥ 1250 µM
[2]
  MIC: ≥ 2500 µM
[3]
  MIC: ≥ 1250 µM
[4]
  MIC: ≥ 2500 µM
[5]
  MIC: ≥ 1250 µM
[6]
  MIC: ≥ 1250 µM
[7]
  MIC: ≥ 1250 µM
[8]
  MIC: ≥ 1250 µM
[9]
  MIC: ≥ 1250 µM
[10]
  MIC: ≥ 2500 µM
[11]
  MIC: ≥ 1250 µM
[12]
  MIC: ≥ 1250 µM
[13]
  MIC: ≥ 625 µM

## CC(C)C[C@H](NC(=O)[C@H](CCCN=C(N)N)NC(=O)[C@@H]1CCCN1C(=O)[C@@H]1CCCN1C(=O)[C@H](CCCN=C(N)N)NC(=O)[C@@H]1CCCN1C(=O)[C@H](CCCN=C(N)N)NC(=O)[C@H](CCCCN)NC(=O)[C@H](CCCN=C(N)N)NC(=O)[C@@H](N)CCCN=C(N)N)C(=O)N1CCC[C@H]1C(=O)N[C@@H](CCCN=C(N)N)C(=O)N1CCC[C@H]1C(=O)N[C@@H](CCCN=C(N)N)C(=O)N1CCC[C@H]1C(=O)N[C@@H](CCCN=C(N)N)C(=O)O [RRKRPRPPRLPRPRPR]
[15]
  MIC: 0.3 µM (≈ 0.627 µg/mL)

## CC(C)C[C@H](NC(=O)[C@H](CC(C)C)NC(=O)[C@H](CC(N)=O)NC(=O)[C@H](CCC(=O)O)NC(=O)[C@H](CC(N)=O)NC(=O)[C@H](CC(C)C)NC(=O)[C@@H](N)C(C)C)C(=O)O [VLNENLL]
[1]
  MIC: ≥ 312 µM
[2]
  MIC: ≥ 2500 µM
[3]
  MIC: ≥ 1250 µM
[4]
  MIC: ≥ 2500 µM
[5]
  MIC: ≥ 1250 µM
[6]
  MIC: ≥ 1250 µM
[7]
  MIC: ≥ 1250 µM
[8]
  MIC: ≥ 1250 µM
[9]
  MIC: ≥ 1250 µM
[10]
  MIC: ≥ 2500 µM
[11]
  MIC: ≥ 1250 µM
[12]
  MIC: ≥ 1250 µM
[13]
  MIC: ≥ 1250 µM

## CC(C)C[C@H](NC(=O)[C@H](C)NC(=O)[C@H](CC(N)=O)NC(=O)[C@H](CCC(=O)O)NC(=O)[C@H](CC(N)=O)NC(=O)[C@H](CC(C)C)NC(=O)[C@@H](N)C(C)C)C(=O)N[C@@H](CCCN=C(N)N)C(=O)O [VLNENALR]
[1]
  MIC: ≥ 625 µM
[2]
  MIC: ≥ 2500 µM
[3]
  MIC: ≥ 2500 µM
[4]
  MIC: ≥ 2500 µM
[5]
  MIC: ≥ 1250 µM
[6]
  MIC: ≥ 1250 µM
[7]
  MIC: ≥ 1250 µM
[8]
  MIC: ≥ 1250 µM
[9]
  MIC: ≥ 1250 µM
[10]
  MIC: ≥ 2500 µM
[11]
  MIC: ≥ 1250 µM
[12]
  MIC: ≥ 625 µM
[13]
  MIC: ≥ 625 µM

## CC[C@H](C)[C@H](N)C(=O)N[C@@H](Cc1cnc[nH]1)C(=O)N[C@@H](Cc1cnc[nH]1)C(=O)N[C@@H](CCC(N)=O)C(=O)NCC(=O)N[C@@H](CC(C)C)C(=O)N1CCC[C@H]1C(=O)N[C@@H](CCC(N)=O)C(=O)N[C@@H](CCC(=O)O)C(=O)O [IHHQGLPQE]
[1]
  MIC: ≥ 1250 µM
[2]
  MIC: ≥ 1250 µM
[3]
  MIC: ≥ 2500 µM
[4]
  MIC: ≥ 2500 µM
[5]
  MIC: ≥ 2500 µM
[6]
  MIC: ≥ 2500 µM
[7]
  MIC: ≥ 2500 µM
[8]
  MIC: ≥ 2500 µM
[9]
  MIC: ≥ 2500 µM
[10]
  MIC: ≥ 2500 µM
[11]
  MIC: ≥ 2500 µM
[12]
  MIC: ≥ 2500 µM
[13]
  MIC: ≥ 2500 µM

## CC[C@H](C)[C@H](N)C(=O)N[C@@H](CCCN=C(N)N)C(=O)N[C@@H](CCCN=C(N)N)C(=O)N[C@@H](CCC(N)=O)C(=O)NCC(=O)N[C@@H](CC(C)C)C(=O)N1CCC[C@H]1C(=O)N[C@@H](CCC(=O)O)C(=O)O [IRRQGLPE]
[1]
  MIC: ≥ 1250 µM
[2]
  MIC: ≥ 1250 µM
[3]
  MIC: ≥ 2500 µM
[4]
  MIC: ≥ 1250 µM
[5]
  MIC: ≥ 1250 µM
[6]
  MIC: ≥ 1250 µM
[7]
  MIC: ≥ 1250 µM
[8]
  MIC: ≥ 312 µM
[9]
  MIC: ≥ 2500 µM
[10]
  MIC: ≥ 1250 µM
[11]
  MIC: ≥ 2500 µM
[12]
  MIC: ≥ 1250 µM
[13]
  MIC: ≥ 625 µM

## CC[C@H](C)[C@H](NC(=O)[C@H](CCCN=C(N)N)NC(=O)[C@H](Cc1c[nH]c2ccccc12)NC(=O)[C@@H](N)Cc1ccccc1)C(=O)N[C@@H](CCCN=C(N)N)C(=O)N[C@@H](CCCCN)C(=O)N[C@H](C(=O)N[C@@H](CCCN=C(N)N)C(N)=O)C(C)C [FWRIRKVR]
[16]
  MIC: ≥ 215 µM

## CC[C@H](C)[C@H](NC(=O)[C@H](CCCCN)NC(=O)[C@H](CCCCN)NC(=O)[C@H](CCCCN)NC(=O)[C@@H](NC(=O)[C@H](CCCCN)NC(=O)[C@H](CCCN=C(N)N)NC(=O)[C@@H](NC(=O)[C@H](CC(N)=O)NC(=O)[C@H](CCCN=C(N)N)NC(=O)[C@H](CCC(N)=O)NC(=O)[C@H](Cc1c[nH]c2ccccc12)NC(=O)[C@@H](N)Cc1ccccc1)[C@@H](C)CC)C(C)C)C(N)=O [FWQRNIRKVKKKI]
[16]
  MIC: ≥ 143 µM

## CC[C@H](C)[C@H](NC(=O)[C@H](CCCN=C(N)N)NC(=O)[C@H](Cc1c[nH]c2ccccc12)NC(=O)[C@@H](N)Cc1ccccc1)C(=O)N[C@@H](Cc1c[nH]c2ccccc12)C(=O)N[C@@H](CCCN=C(N)N)C(=O)N[C@@H](Cc1c[nH]c2ccccc12)C(=O)N[C@@H](CCCN=C(N)N)C(N)=O [FWRIWRWR]
[16]
  MIC: 23.9 µM (≈ 31.2 µg/mL)

## CC[C@H](C)[C@H](NC(=O)[C@H](CCCN=C(N)N)NC(=O)[C@H](CCCN=C(N)N)NC(=O)[C@@H]1CCCN1C(=O)[C@@H]1CCCN1C(=O)[C@H](CCCN=C(N)N)NC(=O)[C@@H]1CCCN1C(=O)[C@H](CCCN=C(N)N)NC(=O)[C@@H]1CCCN1C(=O)[C@H](CCCN=C(N)N)NC(=O)[C@H](CCCN=C(N)N)NC(=O)[C@@H]1CCCN1C(=O)[C@H](CCCN=C(N)N)NC(=O)[C@H](CCCCN)NC(=O)[C@H](CC(=O)O)NC(=O)[C@@H](N)C(C)C)C(=O)N[C@@H](Cc1ccc(O)cc1)C(=O)N[C@@H](CC(N)=O)C(=O)N[C@@H](CCCN=C(N)N)C(N)=O [VDKRPRRPRPRPPRRIYNR]
[15]
  MIC: 0.965 µM (≈ 2.4 µg/mL)

## CC[C@H](C)[C@H](NC(=O)[C@H](CCCN=C(N)N)NC(=O)[C@@H](N)CCCN=C(N)N)C(=O)N[C@@H](CCCN=C(N)N)C(=O)N1CCC[C@H]1C(=O)N[C@@H](CCCN=C(N)N)C(=O)N1CCC[C@H]1C(=O)N1CCC[C@H]1C(=O)N[C@@H](CCCN=C(N)N)C(=O)N[C@@H](CC(C)C)C(=O)N1CCC[C@H]1C(=O)N[C@@H](CCCN=C(N)N)C(=O)N1CCC[C@H]1C(=O)N[C@@H](CCCN=C(N)N)C(=O)N1CCC[C@H]1C(=O)N[C@@H](CCCCN)C(=O)O [RRIRPRPPRLPRPRPK]
[15]
  MIC: 0.24 µM (≈ 0.492 µg/mL)

## CC[C@H](C)[C@H](NC(=O)[C@H](CCCN=C(N)N)NC(=O)[C@H](CCCN=C(N)N)NC(=O)[C@@H]1CCCN1C(=O)[C@@H]1CCCN1C(=O)[C@H](CCCN=C(N)N)NC(=O)[C@@H]1CCCN1C(=O)[C@H](CCCN=C(N)N)NC(=O)[C@@H]1CCCN1C(=O)[C@H](CC(C)C)NC(=O)[C@H](Cc1ccc(O)cc1)NC(=O)[C@H](CS)NC(=O)[C@@H]1CCCN1C(=O)[C@H](CCCCN)NC(=O)[C@H](CC(=O)O)NC(=O)[C@@H](N)C(C)C)C(=O)N[C@@H](Cc1ccc(O)cc1)C(=O)N[C@@H](CC(N)=O)C(=O)N[C@@H](CCCN=C(N)N)C(N)=O [VDKPCYLPRPRPPRRIYNR]
[15]
  MIC: 2 µM (≈ 4.8 µg/mL)

## CC[C@H](C)[C@H](NC(=O)[C@H](CCCN=C(N)N)NC(=O)[C@H](CCCN=C(N)N)NC(=O)[C@@H]1CCCN1C(=O)[C@@H]1CCCN1C(=O)[C@H](CCCN=C(N)N)NC(=O)[C@@H]1CCCN1C(=O)[C@H](CCCN=C(N)N)NC(=O)[C@@H]1CCCN1C(=O)[C@H](CC(C)C)NC(=O)[C@H](Cc1ccc(O)cc1)NC(=O)[C@@H]1CCCN1C(=O)[C@H](CC(N)=O)NC(=O)[C@H](CCCCN)NC(=O)[C@H](CC(=O)O)NC(=O)[C@@H](N)C(C)C)C(=O)N[C@@H](Cc1ccc(O)cc1)C(=O)N[C@@H](CC(N)=O)C(=O)N[C@@H](CCCN=C(N)N)C(N)=O [VDKNPYLPRPRPPRRIYNR]
[15]
  MIC: 1.99 µM (≈ 4.8 µg/mL)

## CC[C@H](C)[C@H](NC(=O)[C@@H](N)Cc1cnc[nH]1)C(=O)N[C@@H](CCC(N)=O)C(=O)N[C@@H](CCCCN)C(=O)N[C@@H](CCC(=O)O)C(=O)N[C@@H](CC(=O)O)C(=O)N[C@H](C(=O)N1CCC[C@H]1C(=O)N[C@@H](CO)C(=O)N[C@@H](CCC(=O)O)C(=O)N[C@@H](CCCN=C(N)N)C(=O)N[C@@H](Cc1ccc(O)cc1)C(=O)N[C@@H](CC(C)C)C(=O)NCC(=O)N[C@@H](Cc1ccc(O)cc1)C(=O)N[C@@H](CC(C)C)C(=O)N[C@@H](CCC(=O)O)C(=O)N[C@@H](CCC(N)=O)C(=O)N[C@@H](CC(C)C)C(=O)N[C@@H](CC(C)C)C(=O)N[C@@H](CCCN=C(N)N)C(=O)N[C@@H](CC(C)C)C(=O)N[C@@H](CCCCN)C(=O)N[C@@H](CCCCN)C(=O)O)C(C)C [HIQKEDVPSERYLGYLEQLLRLKK]
[17]
  MIC: ≥ 186 µM

Reference: DBAASP
